The source of these data is article PMC10794144, “A novel antibiotic class targeting the lipopolysaccharide transporter” (Nature, 2024).

Values after ≈ are worked out from the molar mass of the structure shown.

Assay [1] deals with K. pneumoniae ATCC 700603. As to the kind of experiment: microbe, parasite or virus in culture. In outline:
(§1)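 MIC read by eye as the lowest concentration preventing growth, or as the concentration past which OD600 no longer dropped. Testing used broth microdilution per CLSI M07 and M100, with a 0.5 McFarland suspension diluted in CAMHB.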

A further assay relates to A. baumannii. As to the kind of experiment: microbe, parasite or virus in culture. A digest of the protocol:
as §1

Consider `CN1C(=O)[C@H](CCCN)NC(=O)[C@H](CCCN)NCc2ccccc2Sc2ccccc2CNC(=O)[C@@H]1Cc1c[nH]c2ccccc12` [RO7036668], for which the MIC in assay [1] (Klebsiella pneumoniae, ATCC700603, CAMHB, mode of at least three replicates (RO7036668 one replicate)) was greater than 64 µg/mL; with A. baumannii (Acinetobacter baumannii, ATCC19606, ATCC 19606, CAMHB, MCPs read at 80% growth inhibition) it was 4 µg/mL (≈ 6.1 µM). Besides, the “MIC 100%” value in assay [1] (Study ROC004, 100%) was greater than 64 µg/mL. For the same compound, in the assay with A. baumannii (10 MDR isolates, CAMHB, MCPs read at 80% growth inhibition), the MIC range was in the range of 1 to 16 µg/mL. In addition, in the assay with A. baumannii (Acinetobacter baumannii), the MIC90 turned out to be 16 µg/mL (≈ 24.4 µM).
